Data reported in patent US20240158350A1, “ESTER ANALOGS OF PSILOCIN, PROCESSES FOR THE PREPARATION THEREOF, AND METHODS OF USE” (Invyxis, Inc., priority 2022, published 2024).
Read-outs that look alike come from different tables or passages of the source.

Tests used:
[1] = molecular target: human serotonin 5HT2A receptor (Homo sapiens, UniProt P28223); assay: 5HT2A receptor radioligand displacement assay; set-up: key to the marks not given beside the values; conditions: displacement of [3H]-ketanserin or [3H]-LSD, HEK293 membranes
Chain of human serotonin 5HT2A receptor (P28223 whole entry): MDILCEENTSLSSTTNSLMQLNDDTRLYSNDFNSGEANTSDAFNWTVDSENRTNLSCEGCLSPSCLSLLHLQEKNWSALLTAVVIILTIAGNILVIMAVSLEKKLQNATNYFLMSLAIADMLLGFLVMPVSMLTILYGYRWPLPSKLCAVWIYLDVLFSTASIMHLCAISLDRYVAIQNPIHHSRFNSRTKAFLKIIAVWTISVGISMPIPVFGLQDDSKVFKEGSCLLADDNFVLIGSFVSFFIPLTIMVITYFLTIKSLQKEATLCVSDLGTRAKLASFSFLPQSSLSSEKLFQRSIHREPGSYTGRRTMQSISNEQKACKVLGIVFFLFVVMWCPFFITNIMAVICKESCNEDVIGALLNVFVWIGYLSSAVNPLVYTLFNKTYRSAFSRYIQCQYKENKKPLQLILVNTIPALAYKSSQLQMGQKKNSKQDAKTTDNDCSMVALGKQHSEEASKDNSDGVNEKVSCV

[2] = Stability in fasted state simulated gastric fluid (FaSSGF); assay type: in vitro ADME; conditions: 37° C., 60 min vs T0
Description: Fasted state simulated gastric fluid (FaSSGF). FaSSGF was prepared according to the manufacturer instructions (Biorelevant, UK). Test compounds (2 μL of 200 μM solution) were added to a 96-well plate containing 198 μL FaSSGF per well. The mixture was incubation in a thermomixer at 37° C. for 60 min. Sample aliquots were removed (40 μL, from T0 and 60 min.) and quenched with acetonitrile containing 0.5 μM glyburide (IS), and the supernatant collected by centrifugation (2500 rpm, 15 min.). LC-MS was performed using an Agilent MSD (electrospray in positive ionization) equipped with a Kinetic C18 reverse-column. The percent of test compound remaining was calculated using the ratio of the peak area of intact test compound at 60 min. over T0. The percent of psilocin release was calculated by comparing the peak area of psilocin at 60 min, (for test compound) vs. peak area at T0 (2 μM psilocin).

[3] = IP-One incubation stability (cell-treated stimulation medium, LC-MS); assay type: in vitro ADME; conditions: 2 μM, 60 min vs T0, 37° C., medium on CHO-K1 cells expressing 5-HT2A
Description: IP-One incubation. CHO-K1 cells expressing recombinant Serotonin receptor 5-HT2A (Perkin Elmer, Waltham, MA), were seeded in 96-well plates (˜80,000 cells/well) and treated with 28 μL (per well) of stimulation medium (IP-One HTRF® kit) containing test compounds (2 μM) for 1 hr in a CO2 incubator (5%) at 37° C. The cell-treated medium from 3 wells were pooled together to provide 40 μL for LC-MS analysis. Aliquots for each compound were collected at time zero (T0, 100% intact test compound) and 60-min. The incubated medium (40 μL) was quenched with 120 μL of acetonitrile containing 0.5 μM glyburide (IS), and the supernatant was collected by centrifugation (2500 rpm, 15 min.). LC-MS was performed using an Agilent MSD (electrospray in positive ionization) equipped with a Kinetic C18 reverse-column. The percent of test compound remaining is calculated using the ratio of the peak areas of intact test compound at 60 min. over T0. The percent of psilocin release is calculated by comparing the peak area of psilocin at 60 min. (for test compound) vs. peak area at T0 (2 μM psilocin). Results are summarized in Table 1, (rel to % parent detected; and % psilocin detected at 1 hr).

[4] = Single-dose oral pharmacokinetics in C57BL6 mice (plasma and brain); assay type: in vivo; conditions: for Cmax: read-out: Parent PK Cmax
Description: The single-dose pharmacokinetics of test compounds were analyzed relative to control (psilocin) in C57BL6 mice via oral (PO) administration. Test compound was dissolved in DMSO and transferred to a 15-mL tube, followed by addition of Tween-80, PEG-400, and water to final volume. The resulting formulation (0.3 mg/mL compound, in DMSO (1%), Tween-80 (5%), and PEG-400 (25%) in water (69%)) was vortexed for 2 min. and mixed by inversion.
Male C57BL6 mice (3× per compound, (at a weight ˜20g)) received a single dose (oral) of test compound at 3.0 mg/kg. Blood samples were collected pre-dose and at 0.083, 0.25, 0.5, 1, 2, 4, 8, 24-hour post-dose to yield approximately 20 μL of pooled plasma (3× mice) per time point. Brain tissues were collected at 2- and 8-hr post-dose. Brain was flushed with saline solution using a perfusion needle through the ascending aorta of the ventricle to remove any remaining blood prior to collection. Plasma and brain homogenate samples were stored at −80° C. prior to extraction for LC-MS/MS analysis.
Samples were analyzed by LC-MS/MS to quantify the amounts of test compound and control (psilocin). The calculation of the pharmacokinetic (PK) parameters (AUCt, AUCinf, Cmax, Tmax, T1/2, and Kel) can be performed using a non-compartmental analysis (trapezoidal method).

[5] = male, C57BL6, mouse, parent compound in brain, 2 h post-dose, 3.0 mg/kg PO, read-out: Parent PK [brain] 2 h
[6] = male, C57BL6, mouse, parent compound in plasma, 3.0 mg/kg PO

SMILES | Activity relative to psilocin [1] | % parent compound [2] | % parent compound [3] | other results
CN(C)CCc1c[nH]c2cccc(O)c12 [Psilocin, 4-hydroxy-N,N-dimethyltryptamine] | ++ | 72.2% | 87.4% | psilocin in the brain at 8-h post-dose ([4]; 8-h post-dose): No psilocin in the brain was detected; psilocin plasma concentration (estimate) ([4]; estimate based on other pharmacokinetic data): ~5 ng/mL; concentration at 2 h ([4]; male, C57BL6, mouse, brain, oral, 3 mg/kg, 2-h post-dose, range over animals, read-out: Psilocin concentration in the brain): 40 to 78 ng/g; Kp at 2 h ([4]; male, C57BL6, mouse, brain, oral, 3 mg/kg, 2-h post-dose, with estimated plasma concentration of 5 ng/mL, read-out: mean brain/plasma (B/P) ratio): 11.2 ± 4.3; concentration at 2 h [4, 5]: 54 ng/mL; Cmax [4, 6]: ~5 ng/mL
CN(C)CCc1c[nH]c2cccc(OC(=O)C(C)(C)C(=O)Oc3cccc4[nH]cc(CCN(C)C)c34)c12 [Test Compound A, bis(3-(2-(dimethylamino)ethyl)-1H-indol-4-yl) 2,2-dimethylmalonate] |  |  |  | PK profile (absorption, elimination) ([4]; 3.0 mg/kg PO, in words): quick absorption of the compound, but with a long elimination phase; brain penetration of the parent compound ([4]; 3.0 mg/kg PO, in words): delayed brain penetration of the parent compound; concentration at 2 h [4, 5]: 0.5 ng/mL; AUC ([4]; male, C57BL6, mouse, parent compound in plasma, 3.0 mg/kg PO, read-out: Parent PK AUC): 39 ng·h/mL; Cmax [4, 6]: 4.2 ng/mL; Parent [brain] at 8 h ([4]; parent compound in brain, 8 h post-dose (footnote)): **[brain] at 8 h is 6 ng/mL.
CN(C)CCc1c[nH]c2cccc(OC(=O)CCCC(=O)Oc3cccc4[nH]cc(CCN(C)C)c34)c12 [Test Compound B, bis(3-(2-(dimethylamino)ethyl)-1H-indol-4-yl) glutarate] |  |  |  | PK profile (absorption, elimination) ([4]; 3.0 mg/kg PO, in words): good PK profile as a psilocin prodrug; parent compound detected in plasma or brain samples ([4]; 3.0 mg/kg PO, in words): no parent compound was detected in any of the plasma or brain samples; concentration at 2 h [4, 5]: 0 ng/mL; psilocin detected after administration of test compound ([4]; plasma and brain, in words): psilocin was detected in quantifiable amounts
CN(C)CCc1c[nH]c2cccc(OC(=O)CCC(=O)Oc3cccc4[nH]cc(CCN(C)C)c34)c12 [drawing 41] |  |  | 61.7% | 
CN(C)CCc1c[nH]c2cccc(OC(=O)c3ccc(Br)cc3)c12 [drawing 42] |  |  | 9.1% | 
CN(C)CCc1c[nH]c2cccc(OC(=O)C(C)(C)C(=O)Oc3cccc4[nH]cc(CCN(C)C)c34)c12 [drawing 43] |  |  | 86.8% | 
CN(C)CCc1c[nH]c2cccc(OC(=O)CCCC(=O)Oc3cccc4[nH]cc(CCN(C)C)c34)c12 [drawing 44] |  |  | 71.5% | 
CN(C)CCc1c[nH]c2cccc(OC(=O)c3cccc(C(=O)Oc4cccc5[nH]cc(CCN(C)C)c45)c3)c12 [drawing 45] |  |  | 52.1% | 
CN(C)CCc1c[nH]c2cccc(OC(=O)[C@H]3C[C@@H]3C(=O)Oc3cccc4[nH]cc(CCN(C)C)c34)c12 [drawing 46] |  |  | 76.1% | 
CN(C)CCc1c[nH]c2cccc(OC(=O)c3ccccc3F)c12 [drawing 47] |  |  | 11.4% | 
CN(C)CCc1c[nH]c2cccc(OC(=O)CCC(=O)Oc3cccc4[nH]cc(CCN(C)C)c34)c12 [drawing 49] |  | 97.1% |  | 
CN(C)CCc1c[nH]c2cccc(OC(=O)c3ccc(Br)cc3)c12 [drawing 50] |  | 93.8% |  | 
CN(C)CCc1c[nH]c2cccc(OC(=O)C(C)(C)C(=O)Oc3cccc4[nH]cc(CCN(C)C)c34)c12 [drawing 51] |  | 94.7% |  | 
CN(C)CCc1c[nH]c2cccc(OC(=O)CCCC(=O)Oc3cccc4[nH]cc(CCN(C)C)c34)c12 [drawing 52] |  | 94.5% |  | 
CN(C)CCc1c[nH]c2cccc(OC(=O)c3cccc(C(=O)Oc4cccc5[nH]cc(CCN(C)C)c45)c3)c12 [drawing 53] |  | 93.5% |  | 
CN(C)CCc1c[nH]c2cccc(OC(=O)[C@H]3C[C@@H]3C(=O)Oc3cccc4[nH]cc(CCN(C)C)c34)c12 [drawing 54] |  | 95.5% |  | 
CN(C)CCc1c[nH]c2cccc(OC(=O)c3ccccc3F)c12 [drawing 55] |  | 97.5% |  | 
CN(C)CCc1c[nH]c2cccc(OC(=O)CCC(=O)Oc3cccc4[nH]cc(CCN(C)C)c34)c12 [drawing 57] | +++ |  |  | 
CN(C)CCc1c[nH]c2cccc(OC(=O)c3ccc(Br)cc3)c12 [drawing 58] | ++ |  |  | 
CN(C)CCc1c[nH]c2cccc(OC(=O)C(C)(C)C(=O)Oc3cccc4[nH]cc(CCN(C)C)c34)c12 [drawing 59] | +++ |  |  | 
CN(C)CCc1c[nH]c2cccc(OC(=O)CCCC(=O)Oc3cccc4[nH]cc(CCN(C)C)c34)c12 [drawing 60] | +++ |  |  | 
CN(C)CCc1c[nH]c2cccc(OC(=O)c3cccc(C(=O)Oc4cccc5[nH]cc(CCN(C)C)c45)c3)c12 [drawing 61] | +++ |  |  | 
CN(C)CCc1c[nH]c2cccc(OC(=O)[C@H]3C[C@@H]3C(=O)Oc3cccc4[nH]cc(CCN(C)C)c34)c12 [drawing 62] | +++ |  |  | 
CN(C)CCc1c[nH]c2cccc(OC(=O)c3ccccc3F)c12 [drawing 63] | ++ |  |  | 
